Reference: PubChem BioAssay (NCI)
Values joined by “and” are separate entries in the source; they are usually repeats but may differ in a detail not shown here. Equal entries are not always repeated.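 Each compound was tested at five concentrations against cells in 96-well plates for 48 hours. GI50 is the concentration that inhibits growth by half. At the TGI there is no net growth.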

Legend:
Experiment in all cases: inhibition of tumour cell growth, NCI panel, 48 h
COLO 205 colon = system: COLO 205 colon
M14 melanoma = system: M14 melanoma
MALME-3M melanoma = system: MALME-3M melanoma
NCI-H460 lung = system: NCI-H460 lung
OVCAR-8 ovarian = system: OVCAR-8 ovarian
RXF 393 renal = system: RXF 393 renal
SF-295 CNS = system: SF-295 CNS
SK-MEL-2 melanoma = system: SK-MEL-2 melanoma
SN12C renal = system: SN12C renal
UO-31 renal = system: UO-31 renal

| Compound | TGI (COLO 205 colon) | TGI (M14 melanoma) | TGI (MALME-3M melanoma) | TGI (NCI-H460 lung) | TGI (OVCAR-8 ovarian) | TGI (RXF 393 renal) | TGI (SF-295 CNS) | TGI (SK-MEL-2 melanoma) | TGI (SN12C renal) | TGI (UO-31 renal) | GI50 (COLO 205 colon) | GI50 (M14 melanoma) | GI50 (MALME-3M melanoma) | GI50 (NCI-H460 lung) | GI50 (OVCAR-8 ovarian) | GI50 (RXF 393 renal) | GI50 (SF-295 CNS) | GI50 (SK-MEL-2 melanoma) | GI50 (SN12C renal) | GI50 (UO-31 renal) |
| --- | --- | --- | --- | --- | --- | --- | --- | --- | --- | --- | --- | --- | --- | --- | --- | --- | --- | --- | --- | --- |
| Cn1ncc2cc3c(Nc4ccc(Cl)cc4)cccc3nc21 | 28.1 µM | 46.3 µM | 56.3 µM | 32 µM | 76.1 µM | 37.6 µM | 35.3 µM | 51.8 µM | 70.8 µM | 88.7 µM | – | – | – | – | – | – | – | – | – | – |
| COC(=O)Nc1nc2ccc(C(=O)c3ccc[nH]3)cc2[nH]1 | > 100 µM | > 26.9 µM | > 31.3 µM | > 100 µM | > 100 µM | 4.78 µM | > 100 µM | > 100 µM | > 100 µM | – | – | – | – | – | – | – | – | – | – | – |
| O/N=C1/C(=C/c2ccc(F)cc2)CCCC1C(NO)c1ccc(F)cc1 (stereo unspecified) | > 100 µM | > 100 µM | > 100 µM | > 100 µM | > 100 µM | 86.6 µM | > 100 µM | > 100 µM | 43.6 µM | 72.5 µM | – | – | – | – | – | – | – | – | – | – |
| Cc1c(NC(=O)C(=O)N=NC(=O)c2ccncc2)c(O)c2ccccc2c1O | 32.3 µM | 22.7 µM | 16.4 µM | 16.8 µM | 52.1 µM | 32.6 µM | 23.3 µM | 11 µM | 24.3 µM | 40.5 µM | – | – | – | – | – | – | – | – | – | – |
| N[C@H]1C2C3CC4C5CC(C42)C1(c1ccccc1)C53 (stereo partly specified) | > 100 µM | > 100 µM | > 100 µM | > 100 µM | > 100 µM | > 100 µM | > 100 µM | > 100 µM | > 100 µM | > 100 µM | – | – | – | – | – | – | – | – | – | – |
| CCOC(=O)C1C=C2O[C@@H]3OC4(CCCCC4)O[C@@H]3C2[C@H]2C(=O)C=CC(=O)[C@@]12C(=O)OC (stereo partly specified) | 22.4 µM | 30.1 µM | 31.2 µM | 33.4 µM | 13.9 µM | 3.59 µM | 32.6 µM | 30.6 µM | 31.5 µM | 29.9 µM | – | – | – | – | – | – | – | – | – | – |
| COc1cc[nH]c1/C=C1\C(=O)Nc2ccc(F)c(C#C[C@@H](O)[C@@H](N)[C@@H](C)O)c21 | 0.743 µM | 1.24 µM | 1.7 µM | 2.77 µM | 5.15 µM | 0.955 µM | 3.44 µM | 0.923 µM | 8.38 µM | 2.7 µM | 0.303 µM | 0.413 µM | 0.504 µM | 0.515 µM | 0.843 µM | 0.279 µM | 0.689 µM | 0.39 µM | 0.51 µM | 0.745 µM |
| O=C(Nc1ccncc1)C(=O)c1cn(S(=O)(=O)c2ccc(Br)cc2)c2ccccc12 | > 100 µM | > 100 µM | > 100 µM | > 100 µM | > 100 µM | > 100 µM | > 100 µM | > 100 µM | > 100 µM | > 100 µM | 27.7 µM | 5.74 µM | 24.2 µM | 11.3 µM | 5.9 µM | 7.28 µM | 2.26 µM | 32 µM | 43.5 µM | > 100 µM |
| C[C@@H](c1ccc2nccn2c1)n1nnc2ncc(-c3cnn(C)c3)nc21 | > 100 µM | > 100 µM | > 100 µM | > 100 µM | > 100 µM | > 100 µM | > 100 µM | > 100 µM | > 100 µM | > 100 µM | > 100 µM | > 100 µM | > 100 µM | > 100 µM | > 100 µM | > 100 µM | 0.83 µM | > 100 µM | > 100 µM | > 100 µM |
| COc1ccccc1C(=O)/C=C/c1cc2cccc(OC)c2[nH]c1=O | 1.43 µM | 0.3 µM | 4.6 µM | 0.524 µM | 15 µM | 0.991 µM | 3.85 µM | 4.7 µM | 2.64 µM | 1.68 µM | 0.0481 µM | < 0.0131 µM | 0.0511 µM | 0.0243 µM | 0.0392 µM | 0.0584 µM | 0.0256 µM | 0.656 µM | 0.079 µM | 0.115 µM |
| CCOC(=O)CCC(NC(=O)c1ccc(N=Cc2nc3cc(C(F)(F)F)ccc3nc2-c2ccccc2)cc1)C(=O)OCC (stereo unspecified) | 50 µM and > 100 µM | 50 µM and > 100 µM | 22.7 µM and > 100 µM | 50 µM and > 100 µM | 27.4 µM and > 100 µM | 17.2 µM and 20.2 µM | 31.8 µM and > 100 µM | 34.7 µM and > 100 µM | > 100 µM | > 100 µM | > 100 µM | > 100 µM | > 100 µM | > 100 µM | > 100 µM | 3.1 µM | 71.9 µM | 37.7 µM | > 100 µM | > 100 µM |
| CCOC(=O)/N=c1\ss/c(=N\C(=S)N(C)C)n1-c1ccccc1 | > 100 µM | > 100 µM | > 100 µM | > 100 µM | > 100 µM | 7.13 µM and 44.2 µM | > 100 µM | > 100 µM | > 100 µM | > 100 µM | > 100 µM | > 100 µM | > 100 µM | 35.2 µM | > 100 µM | 15.3 µM | – | – | > 100 µM | > 100 µM |
| COc1cc(CCc2cc(NC(=O)c3ccc(N4C[C@@H](C)N[C@@H](C)C4)cc3)n[nH]2)cc(OC)c1 | > 10 µM and 11.5 µM | > 10 µM and 10.9 µM | > 10 µM and 19.9 µM | > 10 µM and 14.8 µM | > 10 µM and 25.7 µM | 7.97 µM and 9.67 µM | > 10 µM and 21.3 µM | > 10 µM and 18.2 µM | > 10 µM and 15.7 µM | > 10 µM and 13.9 µM | 3.58 µM and 3.61 µM | 7.13 µM and 2.77 µM | 8.58 µM and 5.25 µM | 6.39 µM and 4.16 µM | > 10 µM and 9.01 µM | – | > 10 µM and 6.8 µM | 4.17 µM and 4.95 µM | 6.39 µM and 3.31 µM | 2.84 µM and 2.7 µM |
| C/C(=N\NC(=S)Nc1ccc(C(=O)O)cc1)c1ccccn1 | 34.3 µM | 28.7 µM | 35.1 µM | 50.2 µM | 45.5 µM | 74.4 µM | > 100 µM | 35.4 µM | 35.8 µM | 39.8 µM | – | – | – | – | – | – | – | – | – | – |
| COc1cc(O)c(C(=O)/C=C/c2ccccc2)c(OC)c1 | 28 µM | 84.1 µM | 18.2 µM | 13.3 µM | 10.1 µM | 32.8 µM | 26.9 µM | 21.1 µM | 11.6 µM | 17.6 µM | – | – | – | – | – | – | – | – | – | – |
| CC1(C)CC(=O)C2=C(C1)NC(SSC1=C(C#N)C(c3ccccc3)C3=C(CC(C)(C)CC3=O)N1)=C(C#N)C2c1ccccc1 (stereo unspecified) | 51.5 µg/mL | 43.6 µg/mL | 48.6 µg/mL | 50.7 µg/mL | 57.4 µg/mL | 47 µg/mL | > 150 µg/mL | 49.8 µg/mL | 43.7 µg/mL | 40.5 µg/mL | 29.5 µg/mL | 22.5 µg/mL | 27.3 µg/mL | 27.7 µg/mL | 31.6 µg/mL | 25.7 µg/mL | 112 µg/mL | 26.5 µg/mL | 23.5 µg/mL | 21 µg/mL |
